Patent EP3449978A1, “INHIBITORS OF ARYL HYDROCARBON RECEPTOR FOR TREATING SOFT-TISSUE SARCOMA AND PREVENTING NEUROFIBROMA GROWTH AND/OR TRANSFORMATION TO MALIGNANT PERIPHERAL NERVE SHEATH TUMORS” (UNIVERSITE PARIS DESCARTES, priority 2017, dated 2019)

Assays:
Type in all cases: cell-based, human
AhR [1] = assay: Quantitative RT-PCR of AhR target and cell death genes in 90-8 cells
Protocol: RT-qPCR were performed using primers recognizing specifically the genes indicated. […] The total RNA was then extracted from these cells. […] Quantitative real-time PCR experiments were performed using primers recognizing CYP1A1 and CYP1 B1. *p<0.05, **p<0.01, ***p<0.001 by students t-test. • B, Human MPNST cell line (90-8) was incubated with AhR antagonist CH-223191 (1, 5, 10, 50 and 100 µM) during 48h and 72h. […] E, Total RNA was extracted from 90-8 cell line. Quantitative real-time PCR experiments were performed using primers recognizing PUMA, GADD45 and IL1β. The RT-PCR was normalized using 26S RNA. Data represent the mean+/-SEM of at least 3 independent experiments. *p<0.05, **p<0.01, **p<0.001, by Student's t test.

AhR [2] = assay: Quantitative RT-PCR of AhR pathway genes in STS26T cells; settings: TMF 10µM, CH-223191 50µM, versus DMSO (Fig. 2C)
Protocol: • Figure 1: AHR signaling pathway is activated in Dermal and Plexiform Neurofibromas, and MPNST. • A, Total RNA was isolated from patients having Dermal Neurofibromas (n=8), Plexiform Neurofibromas (n=16) and […]=14). RT-qPCR were performed using primers recognizing specifically the genes indicated. […] Kruskal Wallis H test was used to compare MPNST vs Plexiform Neurofibromas vs Dermal Neurofibromas. • B and B', Representative immunohistochemical study of AhR in a case of MPNST. Formalin fixed, paraffin embedded MPNST samples were stained with Hematoxylin-eosin-saffron (HES) and antibody recognizing AhR has been used to detect AhR. A strong nuclear AhR staining is detected in a proportion of tumor cells while intra-tumoral vessels (arrows) whereas fibroblasts in a fibrous septa (*) taken as internal negative controls are not stained. • Figure 2: AhR inhibition induced death of MPNST cell lines (ST[…]) by apoptosis. • A, ST[…] cell line was reverse transfected with either non-transfected (NT) or siRNA (10 nM). The total RNA was then extracted from these cells. Quantitative real-time PCR experiments were performed using primers recognizing AhR, AHRR, ARNT, CYP1A1 and CYP1 B1. *p<0.05, by non-parametric Student's t-test. • B, Flow cytometry has been conducted to determine the percentage of cell population of living cells, apoptotic cells, late apoptosis and dead. […]

STS26T cells = assay: Annexin V / PI flow cytometry in STS26T cells
Protocol: • Figure 1: AHR signaling pathway is activated in Dermal and Plexiform Neurofibromas, and MPNST. • A, Total RNA was isolated from patients having Dermal Neurofibromas (n=8), Plexiform Neurofibromas (n=16) and MPNST (n=14). RT-qPCR were performed using primers recognizing specifically the genes indicated. Table indicates median [range] mRNA levels. mRNA levels were normalized such that the median value of the dermal neurofibromas was 1. Kruskal Wallis H test was used to compare MPNST vs Plexiform Neurofibromas vs Dermal Neurofibromas. • B and B', Representative immunohistochemical study of AhR in a case of MPNST. Formalin fixed, paraffin embedded MPNST samples were stained with Hematoxylin-eosin-saffron (HES) and antibody recognizing AhR has been used to detect AhR. A strong nuclear AhR staining is detected in a proportion of tumor cells while intra-tumoral vessels (arrows) whereas fibroblasts in a fibrous septa (*) taken as internal negative controls are not stained. • Figure 2: AhR inhibition induced death of MPNST cell lines (STS26T) by apoptosis. • A, STS26T cell line was reverse transfected with either non-transfected (NT) or siRNA (10 nM). The total RNA was then extracted from these cells. Quantitative real-time PCR experiments were performed using primers recognizing AhR, AHRR, ARNT, CYP1A1 and CYP1 B1. *p<0.05, by non-parametric Student's t-test. • B, Flow cytometry has been conducted to determine the percentage of cell population of living cells, apoptotic cells, late apoptosis and dead. After 72h of medium change, cells are stained with Annexin and PI to detect the apoptosis and necrosis. Results represent the means +/- SEM of at least four independent experiments. *p<0.05, by non-parametric Student's t-test. • C, Total RNA was extracted from MPNST cell line STS26T treated either with TMF (10µM) and CH-223191 (50µM) or DMSO. Quantitative real-time PCR experiments were performed using primers recognizing CYP1A1, IL1β. The RT-PCR was normalized using TBP mRNA. Data represent the mean +/- SEM of at least 3 independent experiments. *p<0.05, by Student's t-test. • D, Human STS26T cell line was treated with either AHR antagonists CH-223191 (10µM and 50µM) or TMF (10µM) or DMSO. After 48h/72h of medium change, cells are stained with Annexin V and Propidium Iodide (PI) to detect apoptosis and necrosis. Flow cytometry has been conducted to determine the percentage of cell population of living cells (Annexin V-/PI-), apoptotic cells state (Annexin V+/PI-), late apoptosis state cells (Annexin V+/PI+) and dead cells (Annexin V-/PI+). […] Quantitative real-time PCR experiments were performed using primers recognizing CYP1A1 and CYP1 B1. *p<0.05, **p<0.01, ***p<0.001 by students t-test. • B, Human MPNST cell line (90-8) was incubated with AhR antagonist CH-223191 (1, 5, 10, 50 and 100 µM) during 48h and 72h. Cell viability was analyzed using WST1 assay. **p<.01, by Bonferroni's post hoc tests after two-way ANOVA when compared with DMSO. • C - D, Percentage of cell population of apoptotic (Annexin V+/PI-), dead (Annexin V-/PI+), necrotic (Annexin V+/PI+) and living (Annexin V-/PI-) cells were analyzed using flow cytometry. […] Quantitative real-time PCR experiments were performed using primers recognizing PUMA, GADD45 and IL1β. […]

90-8 cells [3] = assay: Annexin V / PI flow cytometry in 90-8 cells; settings: 50µM, 48h and 72h, Annexin V and PI staining (Fig. 3C, 3D)
Protocol: • Figure 1: AHR signaling pathway is activated in Dermal and Plexiform Neurofibromas, and MPNST. • A, Total RNA was isolated from patients having Dermal Neurofibromas (n=8), Plexiform Neurofibromas (n=16) and MPNST (n=14). RT-qPCR were performed using primers recognizing specifically the genes indicated. Table indicates median [range] mRNA levels. mRNA levels were normalized such that the median value of the dermal neurofibromas was 1. Kruskal Wallis H test was used to compare MPNST vs Plexiform Neurofibromas vs Dermal Neurofibromas. • B and B', Representative immunohistochemical study of AhR in a case of MPNST. […] A strong nuclear AhR staining is detected in a proportion of tumor cells while intra-tumoral vessels (arrows) whereas fibroblasts in a fibrous septa (*) taken as internal negative controls are not stained. • Figure 2: AhR inhibition induced death of MPNST cell lines (STS26T) by apoptosis. • A, STS26T cell line was reverse transfected with either non-transfected (NT) or siRNA (10 nM). […] Quantitative real-time PCR experiments were performed using primers recognizing AhR, AHRR, ARNT, CYP1A1 and CYP1 B1. *p<0.05, by non-parametric Student's t-test. • B, Flow cytometry has been conducted to determine the percentage of cell population of living cells, apoptotic cells, late apoptosis and dead. […]

90-8 cells [4] = assay: In vitro cytotoxicity assay (WST1 assay) in 90-8 cells; settings: 50 µM, WST1 assay (Fig. 3B)
Protocol: 90-8 cells were seeded in triplicate on 96-well plates. Cells were treated with either CH-223191 or 0.1% DMSO. Cytotoxicity was quantified 48 and 72 hours after treatment using WST1 assay (Roche). Relative cytotoxicity was determined as ratio of absorbance at 450 nm of cells treated with CH-223191 versus cells treated with DMSO. IC50 values corresponding to concentrations associated to 50% of cell viability after 72 hours of continuous exposure were determined.

| SMILES | expression of IL1β (AhR [1]; 90-8 cells (Fig. 3E)) | expression of PUMA and GADD45 genes (AhR [1]; 90-8 cells (Fig. 3E)) | expression of the classical AhR target genes: CYP1A1 and CYP1B1 (AhR [1]; 90-8 cells, 50 µM (Fig. 3A)) | expression of AhR target gene: CYP1A (AhR [2]) | cell death, apoptosis and necrosis (STS26T cells; STS26T, 50µM at 48h and 72h, Annexin V and PI staining (Fig. 2D)) | number of dead cells, apoptosis and necrosis (90-8 cells [3]) | decreased 90-8 cell viability (90-8 cells [4]) | effect on STS26T cell death (STS26T cells; 10µM at 48h and 72h, compared with CH-223191) | cells necrotic (STS26T cells; STS26T, 10µM, 72h) | cells underwent apoptosis (STS26T cells; STS26T, 10µM, 72h) | decrease of cell viability (STS26T cells; STS26T, 10µM, 72h) |
| --- | --- | --- | --- | --- | --- | --- | --- | --- | --- | --- | --- |
| Cc1ccccc1N=Nc1ccc(NC(=O)c2ccnn2C)c(C)c1 [CH-223191] | reduced | enhanced | inhibited | inhibited | increased cell death and enhanced apoptosis and necrosis | increased the number of dead cells and enhanced apoptosis and necrosis | 50% |  |  |  |  |
| COc1ccc(-c2cc(=O)c3cc(OC)ccc3o2)c(OC)c1 [TMF, 6,2',4',-trimethoxyflavone] |  |  |  | inhibited |  |  |  | more potent effect than CH-223191 | 30% | 20% | 50% |
